Laboratory results: patent US8686146B2, “Azaindenoisoquinoline topoisomerase I inhibitors” (Purdue Research Foundation, priority 2012, dated 2014)
Structures can show the parent of a compound that is named as a salt. Where two headings read alike, the source gives them in different places.

Columns and labels:
SF-539 = assay: NCI screen antiproliferative activity, CNS SF-539; details: Homo sapiens, 48 h, read-out: cytotoxicity (GI50) CNS SF-539, 48 h, sulforhodamine B, single determination; Table 2
Description: (§1) Cells of approximately 60 different human cancer cell lines were incubated for 48 h with five 10-fold dilutions of the tested compounds starting from 100 μM and then treated with sulforhodamine B dye. The ratios of recorded optical densities relative to that of the control were plotted as a function of the common logarithm of the tested compound concentrations. […] The GI50 and the mean graph midpoint (MGM) values of the prepared indenoisoquinolines in selected cell lines are presented in Table I.
(§2) The antiproliferative activity of each compound was determined in the National Cancer Institute (NCI) screen as described above. Cells of approximately 60 different human cancer cell lines were incubated for 48 h with five 10-fold dilutions of the test compounds starting from 100 μM, and then treated with sulforhodamine B dye. The ratios of recorded optical densities relative to those of the control were plotted as a function of the common logarithm of the tested compound concentrations. […] The GI50 and the mean graph midpoint (MGM) values of the prepared (aza)indeno-isoquinolines in selected cell lines are presented in Table 2.

HCT-116 = assay: NCI screen antiproliferative activity, colon HCT-116; details: Homo sapiens, HCT-116, 48 h, read-out: cytotoxicity (GI50) colon HCT-116, 48 h, sulforhodamine B, single determination
Description: as §1, §2

[1] = test system: approximately 60 different human cancer cell lines; assay: NCI screen, mean graph midpoint over all cell lines; type: cell-based; details: all human cancer cell lines successfully tested, 48 h
Description: as §1, §2

DU-145 = assay: NCI screen antiproliferative activity, prostate DU-145; details: Homo sapiens, DU-145, 48 h, read-out: cytotoxicity (GI50) prostate DU-145, 48 h, sulforhodamine B, single determination
Description: as §1, §2

UACC-62 = assay: NCI screen antiproliferative activity, melanoma UACC-62; details: Homo sapiens, UACC-62, 48 h, read-out: cytotoxicity (GI50) melanoma UACC-62, 48 h, sulforhodamine B, single determination
Description: as §1, §2

MCF7 = assay: NCI screen antiproliferative activity, breast MCF7; details: Homo sapiens, MCF7, 48 h, read-out: cytotoxicity (GI50) breast MCF7, 48 h, sulforhodamine B, single determination
Description: as §1, §2

HOP-62 = assay: NCI screen antiproliferative activity, lung HOP-62; details: Homo sapiens, HOP-62, 48 h, read-out: cytotoxicity (GI50) lung HOP-62, 48 h, sulforhodamine B, single determination
Description: as §1, §2

SN12C = assay: NCI screen antiproliferative activity, renal SN12C; details: Homo sapiens, SN12C, 48 h, read-out: cytotoxicity (GI50) renal SN12C, 48 h, sulforhodamine B, single determination
Description: as §1, §2

human recombinant Top1 = target: T1, human recombinant Top1 (Homo sapiens, UniProt P11387); assay: Top1-mediated DNA cleavage assay; type: biochemical; details: semiquantitative, relative to compounds 1 and 2
T1 construct: made in house
T1 sequence (P11387 1-765): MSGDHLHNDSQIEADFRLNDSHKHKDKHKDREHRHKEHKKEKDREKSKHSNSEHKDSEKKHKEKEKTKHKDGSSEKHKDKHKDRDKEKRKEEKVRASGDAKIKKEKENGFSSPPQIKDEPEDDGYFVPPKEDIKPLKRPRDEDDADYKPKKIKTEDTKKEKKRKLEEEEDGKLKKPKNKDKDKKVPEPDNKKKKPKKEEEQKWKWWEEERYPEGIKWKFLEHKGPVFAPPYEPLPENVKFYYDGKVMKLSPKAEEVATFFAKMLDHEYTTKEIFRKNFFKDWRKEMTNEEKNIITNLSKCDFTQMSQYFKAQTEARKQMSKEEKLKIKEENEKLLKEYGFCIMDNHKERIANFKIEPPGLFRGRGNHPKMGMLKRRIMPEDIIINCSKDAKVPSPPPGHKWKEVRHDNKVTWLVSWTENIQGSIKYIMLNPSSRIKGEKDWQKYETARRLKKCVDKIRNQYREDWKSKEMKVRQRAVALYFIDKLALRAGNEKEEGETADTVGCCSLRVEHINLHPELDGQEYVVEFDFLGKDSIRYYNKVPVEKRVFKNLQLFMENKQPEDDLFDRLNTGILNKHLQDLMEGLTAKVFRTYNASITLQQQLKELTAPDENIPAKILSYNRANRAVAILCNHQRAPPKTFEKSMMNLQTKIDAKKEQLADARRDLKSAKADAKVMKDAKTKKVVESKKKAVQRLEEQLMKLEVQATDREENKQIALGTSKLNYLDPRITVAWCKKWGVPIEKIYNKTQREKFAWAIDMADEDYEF
Description: Unincorporated [^32P]dGTP was removed using mini Quick […] columns (Roche, Indianapolis, Ind.), and the eluate containing the […] DNA substrate was collected. […] Aliquots of each reaction mixture were subjected to 20% denaturing PAGE. […] The DNA fragments were separated on a denaturing gel. […] All of the target compounds were tested for induction of DNA damage in Top1-mediated DNA cleavage assays, as described above.

OVCAR-3 = assay: NCI screen antiproliferative activity, ovarian OVCAR-3; details: Homo sapiens, OVCAR-3, 48 h, read-out: cytotoxicity (GI50) ovarian OVCAR-3, 48 h, sulforhodamine B, single determination; Table 1
Description: as §1, §2

| Top1 Cleavage (human recombinant Top1; Table 1) | Compound | GI50 (HCT-116; Table 1) [nM] | MGM (mean graph midpoint for growth inhibition) ([1]; Table 1) [µM] | GI50 (DU-145; Table 1) [nM] | GI50 (UACC-62; Table 1) [nM] | GI50 (HOP-62; Table 1) [nM] | GI50 (SN12C; Table 1) [nM] | Top1 Cleavage (human recombinant Top1; Table 2) | GI50 (MCF7; Table 1) [nM] | also measured |
| --- | --- | --- | --- | --- | --- | --- | --- | --- | --- | --- |
|  | CC[C@@]1(O)C(=O)OCc2c1cc1n(c2=O)Cc2cc3ccccc3nc2-1 [Compound 1, camptothecin, reference compound] | 30 | 0.04 | 10 | 10 | 10 | 20 |  |  | GI50 (SF-539): 10 nM; GI50 (HCT-116; Table 2): 30 nM; MGM (mean graph midpoint for growth inhibition) ([1]; Table 2): 0.040 µM; GI50 (DU-145; Table 2): 10 nM; GI50 (UACC-62; Table 2): 10 nM; GI50 (MCF7; Table 2): 13 nM; GI50 (HOP-62; Table 2): 10 nM; GI50 (SN12C; Table 2): 20 nM |
|  | COc1ccc2c(n1)C(=O)c1c-2n(CCCN(C)C)c(=O)c2cc(OC)c(OC)cc12.O=C(O)C(F)(F)F [Compound 45, 10-Aza-5,6-dihydro-6-(3-dimethylaminopropyl)-2,3,9-trimethoxy-5,11-dioxo-11H-indeno[1,2-c]isoquinoline Trifluoroacetate] |  |  |  |  |  |  | +++ |  |  |
|  | CN(C)CCCn1c2c(c3ccccc3c1=O)C(=O)c1ccccc1-2 [Compound 33, reference compound] | 580 | 1.86 | 1320 | 510 | 1740 | 910 |  | 550 | GI50 (OVCAR-3): 1660 nM |
| ++ | COc1cc2c3c(n(CCCn4ccnc4)c(=O)c2cc1OC)-c1ncccc1C3=O [Compound 29, 7-Aza-5,6-dihydro-6-(3-(1H-imidazol-1-yl)propyl)-2,3-dimethoxy-5,11-dioxo-11H-indeno[1,2-c]isoquinoline] |  |  |  |  |  |  |  |  |  |
|  | COc1cc2c3c(n(C)c(=O)c2cc1OC)-c1cc2c(cc1C3=O)OCO2 [Compound 2, reference compound] | 11500 | 8.51 | 4790 |  | 2820 | 25700 |  | 1910 | GI50 (SF-539): 1700 nM; GI50 (HCT-116; Table 2): 11500 nM; MGM (mean graph midpoint for growth inhibition) ([1]; Table 2): 8.5 µM; GI50 (DU-145; Table 2): 4800 nM; GI50 (UACC-62; Table 2): 560 nM; GI50 (MCF7; Table 2): 1900 nM; GI50 (HOP-62; Table 2): 2800 nM; GI50 (SN12C; Table 2): 26000 nM |
|  | COc1cc2c3c(n(CCCN(C)C)c(=O)c2cc1OC)-c1cccnc1C3=O.O=C(O)C(F)(F)F [Compound 37, 10-Aza-5,6-dihydro-6-(3-dimethylaminopropyl)-2,3-dimethoxy-5,11-dioxo-11H-indeno[1,2-c]isoquinoline Trifluoroacetate] |  |  |  |  |  |  | ++ |  |  |
|  | COc1cc2c3c(n(CCCN(C)C)c(=O)c2cc1OC)-c1cnccc1C3=O.O=C(O)C(F)(F)F [Compound 117, 8-Aza-5,6-dihydro-6-(3-dimethylaminopropyl)-2,3-dimethoxy-5,11-dioxo-11H-indeno[1,2-c]isoquinoline Trifluoroacetate] |  |  |  |  |  |  | ++ |  |  |
| +++ | CN(C)CCCn1c2c(c3ccccc3c1=O)C(=O)c1cccnc1-2 [Compound 18, 7-Aza-5,6-dihydro-6-(3-dimethylaminopropyl)-5,11-dioxo-11H-indeno[1,2-c]-isoquinoline Hydrochloride] | 410 | 1.78 | 1350 | 2690 | 1510 | 810 |  | 250 | GI50 (OVCAR-3): 2570 nM |
|  | COc1ccc2c(n1)C(=O)c1c-2n(CCCN2CCOCC2)c(=O)c2cc(OC)c(OC)cc12.O=C(O)C(F)(F)F [Compound 46, 10-Aza-5,6-dihydro-6-(3-(4-morpholino)propyl)-2,3,9-trimethoxy-5,11-dioxo-11H-indeno[1,2-c]isoquinoline Trifluoroacetate] |  |  |  |  |  |  | +++ |  |  |
| +++ | O=C1c2cccnc2-c2c1c1ccc([N+](=O)[O-])cc1c(=O)n2CCCN1CCOCC1 [Compound 23, 7-Aza-5,6-dihydro-6-(3-morpholinopropyl)-3-nitro-5,11-dioxo-1H-indeno-[1,2-c]isoquinoline Hydrochloride] |  |  |  |  |  |  |  |  |  |
